Patent US4386211A, “Anti-ulcer urea compounds” (G. D. Searle & Co., priority 1981, dated 1983)

Assays:
[1] = tested on: H2 receptor; test: Lipolysis assay: histamine-stimulated lipolysis in isolated fat cells; assay type: cell-based; details: isolated dog fat cells, histamine 2×10^-6 M; active = 50 percent or more inhibition
Method: Isolated fat cells of dogs are prepared from adipose tissue. Cells are incubated in the presence or absence of histamine at 2×10^-6 M. Additional flasks contain the compound to be tested, plus histamine. At the end of the incubation the cell cultures are analyzed for glycerol content, and results are converted into a lipolysis rate. The stimulation of lipolysis attributed to histamine (D) is the difference between the rate observed in its presence and absence:
These figures are then converted to a percent inhibition by the formula:
Percent inhibition=(D-E)/D×100

[2] = tested on: gastric acid secretion; details: in vivo; cited from earlier work
[3] = tested on: ulcer formation; details: in vivo; cited from earlier work
[4] = humans; cited from earlier work
[5] = biological target: H-2 receptors (Rattus norvegicus, UniProt P25102); test: Rat uterus assay: reversal of histamine inhibition of electrically induced contractions; details: isolated rat uterine smooth muscle; dose ratios of 2 or more indicate activity
Sequence of H-2 receptors (P25102 whole entry): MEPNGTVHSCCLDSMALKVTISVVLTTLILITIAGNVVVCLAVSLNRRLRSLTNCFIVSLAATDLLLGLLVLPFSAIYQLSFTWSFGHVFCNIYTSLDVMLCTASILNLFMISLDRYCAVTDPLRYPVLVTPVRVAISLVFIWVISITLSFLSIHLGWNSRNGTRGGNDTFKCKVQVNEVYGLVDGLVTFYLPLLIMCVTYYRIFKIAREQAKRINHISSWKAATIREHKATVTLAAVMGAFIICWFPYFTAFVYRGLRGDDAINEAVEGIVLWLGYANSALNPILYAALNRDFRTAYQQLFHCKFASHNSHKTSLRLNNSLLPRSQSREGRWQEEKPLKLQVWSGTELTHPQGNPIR
Method: Histamine reduces contractions induced by electrical stimulation of the isolated rat uterine smooth muscle, and histamine H-2 antagonists reverse this inhibition. The dose ratio for a specific concentration of test compound is determined by an assay procedure that compares the inhibitory effect of two concentrations of histamine in the presence of the test compound to the inhibitory effect of two concentrations of histamine in the absence of the test compound. The dose ratio is defined as the ratio of the concentration of histamine in the presence of the test compound to the concentration of histamine in the absence of the test compound where both concentrations produce the same inhibition of the electrical response. Dose ratios of 2 or more indicate activity. Compounds that are active at 40 ug/ml will be tested against isoproterenol at the same concentration in a similar test. Compound concentrations that are active against histamine but not against isoproterenol will be classified as specific H-2 antagonists.
The same type of receptors H-2 are involved in inhibition of contractions of the rat uterus and stimulation of gastric acid secretion. The rat uterus is therefore used as a model upon which to test for histamine H-2 antagonists that may be effective in treating peptic ulcers.

activity in rat uterus assay [5]	Structure (SMILES)	classification in lipolysis assay (active against histamine but not norepinephrine = specific) [1]	gastric acid secretion [2]	ulcer formation [3]	severe toxic symptoms [4]	untoward effects observed [4]
active	C/N=C(\S)NCCSCc1[nH]cnc1C [metiamide]	specific inhibitors	inhibit	inhibit		
active	CNC(=S)NCCCCc1cnc[nH]1 [burimamide]		inhibit	inhibit		

Structure (SMILES)	activity in rat uterus assay [5]	classification in lipolysis assay (active against histamine but not norepinephrine = specific) [1]	gastric acid secretion [2]	ulcer formation [3]	severe toxic symptoms [4]	untoward effects observed [4]
CN/C(=N/CCSCc1nc[nH]c1C)NC#N [cimetidine]	active	specific inhibitors	inhibit	inhibit	no severe toxic symptoms	gynecomastia, elevated SGOT, SGPT and creatine, and increases in serum gastrin
